Assay in all cases: relative viability (nuclei count vs DMSO), 5 days (fraction); higher = more cells survive
Compound in the assay “FG-4592 + Navitoclax”: Cc1nc(C(=O)NCC(=O)O)c(O)c2ccc(Oc3ccccc3)cc12 [FG-4592] + CC1(C)CCC(c2ccc(Cl)cc2)=C(CN2CCN(c3ccc(C(=O)NS(=O)(=O)c4ccc(N[C@H](CCN5CCOCC5)CSc5ccccc5)c(S(=O)(=O)C(F)(F)F)c4)cc3)CC2)C1 [Navitoclax] (partner 0.5 µM)
Put shortly:
(§1)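 Cells from lung cancer lines were seeded into 1536-well plates and, one day later, dosed by pin tool. Treatments were either a single drug or a fixed dose of an anchor drug with five library-drug doses (not always all listed) in √10 steps. After 5 days, nuclei were stained in a one-step fixation (final 0.05% Triton X-100, 1% formaldehyde, 1 ug/ml Hoechst) and counted on 4× images, and relative viability is the treated-to-vehicle nuclei ratio, as the median of duplicate plates.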

Compound in the assay “IU1-47 + Crizotinib”: CC1=CC(=C(N1C2=CC=C(C=C2)Cl)C)C(=O)CN3CCCCC3 [IU1-47] + C[C@@H](Oc1cc(-c2cnn(C3CCNCC3)c2)cnc1N)c1c(Cl)ccc(F)c1Cl [Crizotinib] (partner 1 µM)
Put shortly:
as §1

Compound in the assay “FG-4592 + Luminespib”: Cc1nc(C(=O)NCC(=O)O)c(O)c2ccc(Oc3ccccc3)cc12 [FG-4592] + CCNC(=O)c1noc(-c2cc(C(C)C)c(O)cc2O)c1-c1ccc(CN2CCOCC2)cc1 [Luminespib] (partner 0.01 µM)
Put shortly:
as §1

Compound in the assay “FG-4592 + Dasatinib”: Cc1nc(C(=O)NCC(=O)O)c(O)c2ccc(Oc3ccccc3)cc12 [FG-4592] + Cc1nc(Nc2ncc(C(=O)Nc3c(C)cccc3Cl)s2)cc(N2CCN(CCO)CC2)n1 [Dasatinib] (partner 0.075 µM)
Put shortly: as §1

As for NCI-H1944, the relative viability with FG-4592 + Navitoclax (first compound 0.08 µM) came out at 1.07; with FG-4592 + Navitoclax (first compound 0.253 µM) it was 1.03; with FG-4592 + Navitoclax (first compound 0.8 µM) it was 0.962; with FG-4592 + Navitoclax (first compound 2.53 µM), 1.03; with FG-4592 + Navitoclax (first compound 8 µM), 0.907; with IU1-47 + Crizotinib (first compound 0.08 µM) it was 1.15. Moreover, the relative viability in the assay with IU1-47 + Crizotinib (first compound 0.253 µM) turned out to be 1.21; with IU1-47 + Crizotinib (first compound 0.8 µM), 1.08; with IU1-47 + Crizotinib (first compound 8 µM), 1.09; in the assay with FG-4592 + Luminespib (first compound 0.08 µM) it was 0.762; with FG-4592 + Luminespib (first compound 0.253 µM), 0.716; with FG-4592 + Luminespib (first compound 0.8 µM), 0.728. In addition, the relative viability with FG-4592 + Luminespib (first compound 2.53 µM) came to 0.891; with FG-4592 + Luminespib (first compound 8 µM), 0.763; in the assay with FG-4592 + Dasatinib (first compound 0.08 µM), 0.251; with FG-4592 + Dasatinib (first compound 0.253 µM), 0.207; with FG-4592 + Dasatinib (first compound 0.8 µM), 0.177; with FG-4592 + Dasatinib (first compound 2.53 µM), 0.199. Further, the relative viability with FG-4592 + Dasatinib (first compound 8 µM) is 0.202.

On to NCI-H1975, for which the relative viability was 1.21 with FG-4592 + Navitoclax (first compound 0.08 µM); 1.1 in the assay with FG-4592 + Navitoclax (first compound 0.253 µM); 1.29 with FG-4592 + Navitoclax (first compound 0.8 µM); 1.1 in the assay with FG-4592 + Navitoclax (first compound 2.53 µM); 1.06 with FG-4592 + Navitoclax (first compound 8 µM); 1.04 with IU1-47 + Crizotinib (first compound 0.08 µM). The relative viability came out at 1.01 with IU1-47 + Crizotinib (first compound 0.253 µM); 1 in the assay with IU1-47 + Crizotinib (first compound 0.8 µM); 1.01 with IU1-47 + Crizotinib (first compound 2.53 µM); 0.845 with IU1-47 + Crizotinib (first compound 8 µM); 0.305 with FG-4592 + Luminespib (first compound 0.08 µM); 0.244 with FG-4592 + Luminespib (first compound 0.253 µM). The relative viability is 0.2 with FG-4592 + Luminespib (first compound 0.8 µM); 0.187 with FG-4592 + Luminespib (first compound 2.53 µM); 0.0934 with FG-4592 + Luminespib (first compound 8 µM); 0.416 in the assay with FG-4592 + Dasatinib (first compound 0.08 µM); 0.313 in the assay with FG-4592 + Dasatinib (first compound 0.253 µM); 0.351 with FG-4592 + Dasatinib (first compound 0.8 µM). Besides, the relative viability in the assay with FG-4592 + Dasatinib (first compound 2.53 µM) was 0.277; with FG-4592 + Dasatinib (first compound 8 µM) it was 0.366.

Turning to NCI-H1993, the relative viability amounted to 0.946 in the assay with FG-4592 + Navitoclax (first compound 0.08 µM); 0.907 with FG-4592 + Navitoclax (first compound 0.253 µM); 0.696 with FG-4592 + Navitoclax (first compound 0.8 µM); 1.09 with FG-4592 + Navitoclax (first compound 2.53 µM); 0.898 in the assay with FG-4592 + Navitoclax (first compound 8 µM); 0.928 in the assay with IU1-47 + Crizotinib (first compound 0.08 µM). Besides, the relative viability in the assay with IU1-47 + Crizotinib (first compound 0.253 µM) came to 0.84; with IU1-47 + Crizotinib (first compound 0.8 µM), 0.965; in the assay with IU1-47 + Crizotinib (first compound 2.53 µM), 0.85; in the assay with IU1-47 + Crizotinib (first compound 8 µM), 0.864; with FG-4592 + Luminespib (first compound 0.08 µM), 0.806; in the assay with FG-4592 + Luminespib (first compound 0.253 µM), 0.868. In addition, the relative viability with FG-4592 + Luminespib (first compound 0.8 µM) was 0.771; with FG-4592 + Luminespib (first compound 2.53 µM) it was 0.984; in the assay with FG-4592 + Luminespib (first compound 8 µM) it was 0.869; with FG-4592 + Dasatinib (first compound 0.08 µM), 0.513; with FG-4592 + Dasatinib (first compound 0.253 µM), 0.631; in the assay with FG-4592 + Dasatinib (first compound 0.8 µM), 0.473. Also, the relative viability with FG-4592 + Dasatinib (first compound 2.53 µM) was 0.547; in the assay with FG-4592 + Dasatinib (first compound 8 µM) it was 0.396.

In the case of NCI-H2009, the relative viability in the assay with FG-4592 + Navitoclax (first compound 0.08 µM) was 1.2; with FG-4592 + Navitoclax (first compound 0.253 µM), 1.18; in the assay with FG-4592 + Navitoclax (first compound 0.8 µM), 1.21; in the assay with FG-4592 + Navitoclax (first compound 2.53 µM), 1.05; in the assay with FG-4592 + Navitoclax (first compound 8 µM) it was 1.22; in the assay with IU1-47 + Crizotinib (first compound 0.08 µM), 1. Moreover, the relative viability with IU1-47 + Crizotinib (first compound 0.253 µM) is 1.1; in the assay with IU1-47 + Crizotinib (first compound 0.8 µM), 0.933; with IU1-47 + Crizotinib (first compound 2.53 µM) it was 1.1; with IU1-47 + Crizotinib (first compound 8 µM) it was 1.05; with FG-4592 + Luminespib (first compound 0.08 µM) it was 1.04; with FG-4592 + Luminespib (first compound 0.253 µM), 0.936. Besides, the relative viability was 1.01 in the assay with FG-4592 + Luminespib (first compound 0.8 µM); 0.959 with FG-4592 + Luminespib (first compound 2.53 µM); 0.999 with FG-4592 + Luminespib (first compound 8 µM); 0.323 in the assay with FG-4592 + Dasatinib (first compound 0.08 µM); 0.172 with FG-4592 + Dasatinib (first compound 0.253 µM); 0.267 with FG-4592 + Dasatinib (first compound 0.8 µM). In addition, the relative viability with FG-4592 + Dasatinib (first compound 2.53 µM) is 0.283; with FG-4592 + Dasatinib (first compound 8 µM), 0.27.

The values are drawn from the supplement of paper PMC10307832.
